Experiments:
lambsquarters [1] = test: Test Example 4: herbicidal effect by soil treatment (Table 19, symbol O); assay type: in vivo, lambsquarters (Chenopodium album); details: amount of applied herbicide 320 g/ha
In short: (§1)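 Applied as a water-diluted emulsion, the compound was sprayed onto soil covering newly sown seeds. Evaluation came three weeks after application, in a greenhouse held at 25° C. to 30° C.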

wild oat [2] = test: Test Example 5: herbicidal effect by foliage application, plastic box (Table 20, symbol I); assay type: in vivo, wild oat (Avena fatua); details: foliage application, 320 g/ha, evaluated three weeks after application
In short: (§2)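 Sow seeds spot-wise in sterilized diluvial soil; cover with ~1.5 cm soil. Grow 14 days in greenhouse, 25° C. to 30° C. Spray foliage with emulsion diluted to predetermined amount. Rate effect after 3 weeks.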

lambsquarters [3] = test: Test Example 5: herbicidal effect by foliage application, plastic box (Table 20, symbol O); assay type: in vivo, lambsquarters (Chenopodium album); details: foliage application, 320 g/ha, evaluated three weeks after application
In short: as §2

Italian ryegrass [4] = test: Test Example 4: herbicidal effect by soil treatment (Table 19, symbol K); assay type: in vivo, Italian ryegrass (Lolium multiflorum); details: amount of applied herbicide 320 g/ha
In short: as §1

velvetleaf [5] = test: Test Example 4: herbicidal effect by soil treatment (Table 19, symbol M); assay type: in vivo, velvetleaf (Abutilon theophrasti); details: amount of applied herbicide 320 g/ha
In short: as §1

velvetleaf [6] = test: Test Example 5: herbicidal effect by foliage application, plastic box (Table 20, symbol M); assay type: in vivo, velvetleaf (Abutilon theophrasti); details: foliage application, 320 g/ha, evaluated three weeks after application
In short: as §2

chickweed [7] = test: Test Example 5: herbicidal effect by foliage application, plastic box (Table 20, symbol P); assay type: in vivo, common chickweed (Stellaria media); details: foliage application, 320 g/ha, evaluated three weeks after application
In short: as §2

redroot pigweed [8] = test: Test Example 4: herbicidal effect by soil treatment (Table 19, symbol N); assay type: in vivo, redroot pigweed (Amaranthus retroflexus); details: amount of applied herbicide 320 g/ha
In short: as §1

redroot pigweed [9] = test: Test Example 5: herbicidal effect by foliage application, plastic box (Table 20, symbol N); assay type: in vivo, redroot pigweed (Amaranthus retroflexus); details: foliage application, 320 g/ha, evaluated three weeks after application
In short: as §2

persian speedwell [10] = test: Test Example 4: herbicidal effect by soil treatment (Table 19, symbol R); assay type: in vivo, Persian speedwell (Veronica persica); details: amount of applied herbicide 320 g/ha
In short: as §1

southern crabgrass [11] = test: Test Example 5: herbicidal effect by foliage application, plastic box (Table 20, symbol F); assay type: in vivo, southern crabgrass (Digitaria ciliaris); details: foliage application, 320 g/ha, evaluated three weeks after application
In short: as §2

Italian ryegrass [12] = test: Test Example 5: herbicidal effect by foliage application, plastic box (Table 20, symbol K); assay type: in vivo, Italian ryegrass (Lolium multiflorum); details: foliage application, 320 g/ha, evaluated three weeks after application
In short: as §2

green foxtail [13] = test: Test Example 5: herbicidal effect by foliage application, plastic box (Table 20, symbol G); assay type: in vivo, green foxtail (Setaria viridis); details: foliage application, 320 g/ha, evaluated three weeks after application
In short: as §2

chickweed [14] = test: Test Example 4: herbicidal effect by soil treatment (Table 19, symbol P); assay type: in vivo, common chickweed (Stellaria media); details: amount of applied herbicide 320 g/ha
In short: as §1

blackgrass [15] = test: Test Example 4: herbicidal effect by soil treatment (Table 19, symbol J); assay type: in vivo, blackgrass (Alopecurus myosuroides); details: amount of applied herbicide 320 g/ha
In short: as §1

persian speedwell [16] = test: Test Example 5: herbicidal effect by foliage application, plastic box (Table 20, symbol R); assay type: in vivo, Persian speedwell (Veronica persica); details: foliage application, 320 g/ha, evaluated three weeks after application
In short: as §2

wild oat [17] = test: Test Example 4: herbicidal effect by soil treatment (Table 19, symbol I); assay type: in vivo, wild oat (Avena fatua); details: amount of applied herbicide 320 g/ha
In short: as §1

green foxtail [18] = test: Test Example 4: herbicidal effect by soil treatment (Table 19, symbol G); assay type: in vivo, green foxtail (Setaria viridis); details: amount of applied herbicide 320 g/ha
In short: as §1

windgrass [19] = test: Test Example 5: herbicidal effect by foliage application, plastic box (Table 20, symbol L); assay type: in vivo, windgrass (Apera spica-venti); details: foliage application, 320 g/ha, evaluated three weeks after application
In short: as §2

windgrass [20] = test: Test Example 4: herbicidal effect by soil treatment (Table 19, symbol L); assay type: in vivo, windgrass (Apera spica-venti); details: amount of applied herbicide 320 g/ha
In short: as §1

barnyard grass [21] = test: Test Example 5: herbicidal effect by foliage application, plastic box (Table 20, symbol H); assay type: in vivo, barnyard grass (Echinochloa crus-galli); details: foliage application, 320 g/ha, evaluated three weeks after application
In short: as §2

blackgrass [22] = test: Test Example 5: herbicidal effect by foliage application, plastic box (Table 20, symbol J); assay type: in vivo, blackgrass (Alopecurus myosuroides); details: foliage application, 320 g/ha, evaluated three weeks after application
In short: as §2

barnyard grass [23] = test: Test Example 4: herbicidal effect by soil treatment (Table 19, symbol H); assay type: in vivo, barnyard grass (Echinochloa crus-galli); details: amount of applied herbicide 320 g/ha
In short: as §1

southern crabgrass [24] = test: Test Example 4: herbicidal effect by soil treatment (Table 19, symbol F); assay type: in vivo, southern crabgrass (Digitaria ciliaris); details: amount of applied herbicide 320 g/ha
In short: as §1

COc1ccc(-c2sc3ccc(C)cc3c2-c2c(O)c(C)nn(C)c2=O)cc1 [2-140]
O: lambsquarters, herbicidal effect rating (lambsquarters [1]): 0 (Herbicidal rate of 5% or less (almost no effect)) | herbicidal effect on I: wild oat (wild oat [2]): 0 (Herbicidal rate of 5% or less (almost no effect)) | herbicidal effect on O: lambsquarters (lambsquarters [3]): 3 (Herbicidal rate of 40% or more and less than 70%) | K: Italian ryegrass, herbicidal effect rating (Italian ryegrass [4]): 0 (Herbicidal rate of 5% or less (almost no effect)) | M: velvetleaf, herbicidal effect rating (velvetleaf [5]): 3 (Herbicidal rate of 40% or more and less than 70%) | herbicidal effect on M: velvetleaf (velvetleaf [6]): 4 (Herbicidal rate of 70% or more and less than 90%) | herbicidal effect on P: chickweed (chickweed [7]): 4 (Herbicidal rate of 70% or more and less than 90%) | N: redroot pigweed, herbicidal effect rating (redroot pigweed [8]): 2 (Herbicidal rate of 20% or more and less than 40%) | herbicidal effect on N: redroot pigweed (redroot pigweed [9]): 3 (Herbicidal rate of 40% or more and less than 70%) | R: persian speedwell, herbicidal effect rating (persian speedwell [10]): 3 (Herbicidal rate of 40% or more and less than 70%) | herbicidal effect on F: southern crabgrass (southern crabgrass [11]): 0 (Herbicidal rate of 5% or less (almost no effect)) | herbicidal effect on K: Italian ryegrass (Italian ryegrass [12]): 0 (Herbicidal rate of 5% or less (almost no effect)) | herbicidal effect on G: green foxtail (green foxtail [13]): 0 (Herbicidal rate of 5% or less (almost no effect)) | P: chickweed, herbicidal effect rating (chickweed [14]): 0 (Herbicidal rate of 5% or less (almost no effect)) | J: blackgrass, herbicidal effect rating (blackgrass [15]): 0 (Herbicidal rate of 5% or less (almost no effect)) | herbicidal effect on R: persian speedwell (persian speedwell [16]): 5 (Herbicidal rate of 90% or more (almost completely withered)) | I: wild oat, herbicidal effect rating (wild oat [17]): 0 (Herbicidal rate of 5% or less (almost no effect)) | G: green foxtail, herbicidal effect rating (green foxtail [18]): 0 (Herbicidal rate of 5% or less (almost no effect)) | herbicidal effect on L: windgrass (windgrass [19]): 0 (Herbicidal rate of 5% or less (almost no effect)) | L: windgrass, herbicidal effect rating (windgrass [20]): 0 (Herbicidal rate of 5% or less (almost no effect)) | herbicidal effect on H: barnyard grass (barnyard grass [21]): 0 (Herbicidal rate of 5% or less (almost no effect)) | herbicidal effect on J: blackgrass (blackgrass [22]): 0 (Herbicidal rate of 5% or less (almost no effect)) | H: barnyard grass, herbicidal effect rating (barnyard grass [23]): 0 (Herbicidal rate of 5% or less (almost no effect)) | F: southern crabgrass, herbicidal effect rating (southern crabgrass [24]): 0 (Herbicidal rate of 5% or less (almost no effect))

Reference: patent US20230085307A1, “PYRIDAZINONE COMPOUND AND HERBICIDE” (NISSAN CHEMICAL CORPORATION, priority 2019, published 2023)
